# “Also recorded” adds a separate entry of the source.
# What was measured:
# influenza virus = format: cell-based; conditions: MDCK cells, screening concentration 50 μM, 36 h
# MDCK cell = assay: Cytotoxicity in the anti influenza virus assay (MDCK cells); format: cell-based; conditions: screening concentration 50 μM
# Description: CellTiter-Glo® Luminescent Cell Viability Assay
# Screening concentration: 50 μM
# MDCK cells were laid with 96 well plates (1×10^4/well) and incubated in 37° C. and 5% CO2 incubators for 24 h, then the medicine was added.
# After dosing, the 96 well plate was put in the 37° C., 5% CO2 incubator for 36 h, and detected with the microplate reader.
# ICR mice = assay: Oral glucose tolerance (OGTT) pharmacodynamic experiment in ICR mice; format: in vivo; conditions: for hypoglycemic effect: OGTT; for hypoglycemic activity: oral glucose tolerance, glucose 5 g/kg, compound given 0.5 h before sugar
# Description: 1. Pharmacodynamic Experiment of Compound on Oral Glucose Tolerance in ICR Mice
# After the animals arrived at WuXi AppTec facilities, they were kept in the animal feeding room with strictly controlled environmental conditions. The temperature was kept at 20-24° C. and the humidity was kept at 30-70% in the feeding room. The temperature and humidity of the feeding room were monitored in real time through the temperature and humidity meter, and the temperature and humidity were recorded twice a day (once in the morning and once in the afternoon). The lighting in the animal feeding room was controlled by an electronic timing lighting system, which was turned on for 12 hours every day and turned off for 12 hours (on at 7:00 a.m. and off at 19:00 p.m.). During the experiment, the animals were raised in a single cage and toys were provided for mice in each cage. During the experiment, the animals freely took food (growth/reproduction feed for rats and mice) and water.
# After the animals arrived, they can adapt to the environment for 1-2 weeks before conducting the experiment.
# 1) Preparation of liquid medicine: each compound was prepared on the first day of the experiment, and then stored in a 4° C. refrigerator for use on the next day.
# 2) Administration: After grouping, animals in each group were administered 0.5 hours before sugar administration.
# 3) Oral glucose tolerance experiment: sugar was administrated to the animals by gavage 0.5 hour after the end of the animal administration, and the time of sugar administration was recorded as 0 min. The oral dose of glucose was 5 g/kg, 10 ml/kg. The blood glucose of animals was detected before administration, before sugar administration, and 15, 30, 60, 90, and 120 minutes after sugar administration. The blood glucose was detected with a blood glucose meter and the corresponding blood glucose test paper.
# [1] = tested on: intestinal endocrine cell line STC-1 cell; assay: In vitro GLP-1 secretion in STC-1 cells (HTRF kit); format: cell-based; conditions: for EC50: 1 h treatment, read-out: EC50 of promoting GLP-1 secretion in vitro
# Description: Cell line: intestinal endocrine cell line STC-1 cell
# Positive control: INT777 (TGR5 receptor agonist)
# Others: KRBH buffer, BSA, DPP4 inhibitor
# STC-1 cells were seeded with a certain density. After the cells adhered to the wall overnight, they were starved with KRBH buffer, while BSA was used to maintain nutrition, and degradation of GLP-1 was reduced with DPP4 inhibitors. After 1 h, they were replaced with glucose free or glucose containing KRBH buffer to stimulate GLP-1 secretion. At the same time, compounds of certain concentrations were added. After 1 h of treatment, supernatant was collected and tested for GLP-1 concentration with HTRF kit. The secretion of LDH was also detected to indicate the toxicity of the compounds.
# SARS Cov-2 virus = SARS Cov-2 virus replication inhibition in Vero E6 cells (viral copy number by qPCR); format: cell-based; conditions: Severe acute respiratory syndrome coronavirus 2, Vero C1008, MOI 0.05, 24 hours
# PK property in mice = format: in vivo, ICR (CD-1) mice; conditions: PO 25 mg/kg, IV 3 mg/kg
# Description: Species/strain: ICR (CD-1) mice
# Gender/number of rats: male (n=6)
# Weight (g): male (20-24 g)
# Type of diet: standard rodent diet • freely drink • Fasted for 12 hours before administration and keeping fasting for 2 hours.
# Feeding: animal room environment control (target conditions: temperature 18 to 29° C., relative humidity 30 to 70%. Temperature and relative humidity were monitored every day. The electronic time control lighting system was used to provide 12 hours of light/12 hours of dark cycle.
smiles,measurement,setting,value
"CC1(C)CC[C@]2(C(=O)O)CC[C@]3(C)C(=CCC4[C@@]5(C)CC[C@H]([C@@H](O)[C@@H]6OC(CO)[C@@H](O)C(O)C6O)C(C)(C)C5CC[C@]43C)C2C1 (stereo partly drawn) [Example A2, (3S,5S,8R,9R,10S,14R,17R,18S)-Oleanolicacid-3-(1′R)-(hydroxyl)methyl-β-D-glucopyranoside]",virus inhibition rate,influenza virus,same virus inhibition rate
same,cytotoxicity,MDCK cell,low cytotoxicity; also recorded: lower cytotoxicity than that of ribavirin
"CC1(C)CC[C@]2(C(=O)O)CC[C@]3(C)C(=CCC4[C@@]5(C)CC[C@H]([C@@H](O)[C@@H]6OC(C(=O)O)[C@@H](O)C(O)C6O)C(C)(C)C5CC[C@]43C)C2C1 (stereo partly drawn) [Example A25, (3S,5S,8R,9R,10S,14R,17R,18S)-Oleanolic acid-3-(1′R)-(hydroxy)methyl-β-D-glucurouopyranoside]",hypoglycemic effect,ICR mice; 25 mg/kg,obvious hypoglycemic effect
same,hypoglycemic effect,ICR mice; 50 mg/kg,further enhanced hypoglycemic effect
same,hypoglycemic activity,ICR mice,good in vivo hypoglycemic effect; also recorded: best hypoglycemic activity
"CC1O[C@@H]([C@H](O)[C@H]2CC[C@@]3(C)C(CC[C@]4(C)C3CC=C3C5CC(C)(C)CC[C@]5(C(=O)O)CC[C@]34C)C2(C)C)C(O)C(O)[C@H]1O (stereo partly drawn) [Example A43, (3S,5S,8R,9R,10S,14R,17R,18S)-Oleanolic acid-3-(1'S)-(hydroxy)methyl-α-L-rhamnopyranoside]",hypoglycemic effect,ICR mice; 25 mg/kg,obvious hypoglycemic effect
same,hypoglycemic effect,ICR mice; 50 mg/kg,further enhanced hypoglycemic effect
same,hypoglycemic activity,ICR mice,good in vivo hypoglycemic effect; also recorded: best hypoglycemic activity
"CC1(C)CC[C@]2(C(=O)O)CC[C@]3(C)C(=CCC4[C@@]5(C)CC[C@@H](C[C@@H]6OC(C(=O)O)[C@@H](O)C(O[C@@H]7OC[C@@H](O)C(O)C7O)C6O)C(C)(C)C5CC[C@]43C)C2C1 (stereo partly drawn) [Example A64, (3R,5S,8R,9R,10S,14R,17R,18S)-Oleanolic acid-3-methyl-β-D-xylopyranosyl(1→3)-β-D-glucurouopyranoside]",in vitro effect of promoting GLP-1 secretion,[1],good in vitro effect of promoting GLP-1 secretion
same,EC50,[1],7.23 µM
"CC1(C)CC[C@]2(C(=O)OCn3cccn3)CC[C@]3(C)C(=CCC4[C@@]5(C)CC[C@H]([C@@H](O)[C@@H]6OC(C(=O)O)[C@@H](O)C(O)C6O)C(C)(C)C5CC[C@]43C)C2C1 (stereo partly drawn) [Example A104, (3S,5S,8R,9R,10S,14R,17R,18S)-28-O-(Pyrazol-1″′-yl)methyl oleanolic acid-3-(1′R)-(hydroxy)methyl-β-D-glucurouopyranoside]",EC50,SARS Cov-2 virus,3.6 µM
same,PK properties,PK property in mice,good PK properties
"CNC(=O)C1O[C@@H]([C@H](O)[C@H]2CC[C@@]3(C)C(CC[C@]4(C)C3CC=C3C5CC(C)(C)CC[C@]5(C(=O)O)CC[C@]34C)C2(C)C)C(O)C(O)[C@@H]1O (stereo partly drawn) [Example A114, (3S,5S,8R,9R,10S,14R,17R,18S)-Oleanolic acid-3-(1′R)-(hydroxy)methyl-6″-methylamino-β-D-glucurouopyranoside]",EC50,SARS Cov-2 virus,4.6 µM
"CC[C@H]1[C@@H](O)[C@@H]2[C@H](C[C@H](O)[C@]3(C)[C@@H]([C@H](C)C[C@H](C)C(=O)O)CC[C@@H]23)[C@@]2(C)CC[C@@H](O)C[C@@H]12 [INT777, reference compound]",EC50,[1],22.8 µM

# Reference: patent US20240262860A1, “PENTACYCLIC TRITERPENOID GLYCOSIDE COMPOUND, AND PREPARATION METHOD THEREFOR AND USE THEREOF” (SHANGHAI INSTITUTE OF MATERIA MEDICA, CHINESE ACADEMY OF …, priority 2020, published 2024)
